Measurements as given in patent US20260001792A1, “METHOD FOR PRODUCING SLIME-SUPPRESSING AUXILIARY AGENT FOR REVERSE OSMOSIS MEMBRANE, SLIME-SUPPRESSING AUXILIARY AGENT FOR REVERSE OSMOSIS MEMBRANE, AND WATER TREATMENT METHOD” (ORGANO CORPORATION, priority 2022, published 2026).

Tests used:
[1] = Effects on membrane: flux and EC rejection rate before/after contact with agent
Description: The effects on a reverse osmosis membrane were evaluated for the case where the mixture of the slime-suppressing auxiliary agent for a reverse osmosis membrane (potassium iodide aqueous solution (KI)) and sodium hypochlorite (NaClO) from the example was used.
The flux and EC rejection rate of the reverse osmosis membrane are measured prior to contact with the agent • 2. The agent is brought into contact with the reverse osmosis membrane at a theoretical value for the CT value of 30,000 (mg/L as Cl^2×h) • 3. The flux and EC rejection rate of the reverse osmosis membrane are measured following the contact with the agent
The flux was calculated by dividing the permeate volume per prescribed time period at 25° C. by the membrane surface area and the operating pressure. The EC rejection rate was determined by measuring the conductivity of the permeate and the conductivity of the feed water using a conductivity measurement apparatus, with the EC rejection rate calculated as (100−[permeate conductivity/feed water conductivity]×100).

[2] = Effect of amount added of iodide ions on oxidation-reduction potential (ORP); type: physicochemical; conditions: sodium hypochlorite 1 mg/L as Cl2, stirred 3 minutes after potassium iodide addition
Description: A sodium hypochlorite aqueous solution was added to ultrapure water prepared with a prescribed pH value in sufficient amount to provide 1 mg/L as Cl2, potassium iodide was then added to the solution and stirred for 3 minutes, and the oxidation-reduction potential (ORP) was then measured. […] The oxidation-reduction potential (ORP) was measured using an ORP meter (RM-2oP) manufactured by DKK-TOA Corporation.

OCl [NaClO, sodium hypochlorite]
Flux after contact ([1]; ESPA2, pH 7, after contact at CT value 30,000): 4.1 m/(d · MPa)
Flux before contact ([1]; ESPA2, pH 7, baseline before contact with agent): 2.0 m/(d · MPa)

[Na+].[O-]Cl [Reference Example 8, sodium hypochlorite]
ORP ([2]; pH 4): 837 mV

[Na+].[O-]Cl [Reference Example 10, sodium hypochlorite]
ORP ([2]; pH 7): 638 mV

[Na+].[O-]Cl [Reference Example 12, sodium hypochlorite]
ORP ([2]; pH 10): 359 mV
